Data: patent publication US10385378B2, “Method for determining toxic substances by plant gel agar coagulation” (priority 2017, dated 2019)
≈ marks a conversion by molar mass, not a printed value. Read-outs that look alike come from different tables or passages of the source.

Key:
[1] = Agar coagulation time with cosmetic materials (3% agar); details: for Agar coagulation time with increase of sample concentration vs control group: FIGS. 2-6, mean±SEM, N=3
Description: The agar gel solution is dissolved to form a clear solution by changing the temperature in the range from a room temperature to 25° C. The agar gel solution is held in a carrier, such as a bottle, or a test tube, and is tilted at about 30°-60° (for example, 45°) from the vertical orientation. The coagulation time is defined when the agar gel solution ceases to flow.
The subject method utilizes a carrier (such as, for example, a test tube) to observe the effect of added cosmetic material to the coagulation of agar, so as to assess the toxicity of cosmetic materials. In this example, the present invention further evaluates the relevance of the cosmetic material toxicity based on the agar coagulation time with the cytotoxic IC50 testing.
The agar was prepared to be used as the main application material (the plant gel material) for the present invention, and a sample was prepared to test the coagulation time of the agar (for 25 samples under study) as described above. For example, the concentrations of agar solutions are 1%, 2%, 3%, 4%, 5%, and 6% (w/w). In one of the examples, 3% agar solution was heated to 100° C. to be dissolved, and then 100 ml or 200 ml of agar solution was added to a bottle or a test tube to be mixed with various samples (100 ml, or 200 ml). The bottle, or the test tube, were tilted about 45° relative to a plane each 30 seconds, to observe whether there is coagulation, and the cooling from 100° C. to room temperature and corresponding coagulation times were recorded.

[2] = Cell viability analysis (MTT) cytotoxicity, B16-F10 cells; details: mouse, B16-F10 cells (ATCC CRL-6475)
Description: (§1) The MTT reagent was reduced to the purple crystalline formazan by the mitochondrial enzyme of surviving cells, and the crystals were dissolved by DMSO (Dimethyl Sulfoxide).
(§2) Subsequently, the absorbance of OD570 nm was measured. The color depth was proportional with the number of viable cells. […] After 3-5 hours, the cells were plated on 96-well plates and added to the sample (100 μl per well). After incubation for 24 hours, the MTT reagent (MTT 5 mg/ml dissolved in PBS) was reacted for 1 to 2 hours. The culture medium in the 96-well dish was blotted with the MTT reagent and dissolved in 100 μl of DMSO. The absorbance values were read at a wavelength of 570 nm with an ELISA kit.

[3] = Cell viability analysis (MTT) cytotoxicity, skin 3T3 cells; details: mouse, skin 3T3 cells (ATCC CCL-92)
Description: as §1, §2

skin 3T3 cells [4] = system: skin 3T3 cells
Description: as §1, §2

B16-F10 cells [5] = system: B16-F10 cells
Description: as §1, §2

in vitro [6] = details: mouse
Description: as §1, §2

B16-F10 cells [7] = experiment: Cell viability analysis (MTT) cytotoxicity, B16-F10 cells; details: MTT, incubation for 24 hours
Description: as §1, §2

skin 3T3 cells [8] = experiment: Cell viability analysis (MTT) cytotoxicity, skin 3T3 cells; details: MTT, incubation for 24 hours
Description: as §1, §2

in vitro [9] = details: mouse; remark: listed apart in the source
Description: as §1, §2

[10] = sample concentration 10 % (w/w)
[11] = sample concentration 20 % (w/w)
[12] = sample concentration 30 % (w/w)
[13] = sample concentration 15 % (w/w)

| Agar coagulation time ([1]; sample concentration 1 % (w/w)) [min] | Agar coagulation time ([1]; sample concentration 5 % (w/w)) [min] | Agar coagulation time [1, 10] [min] | Agar coagulation time [1, 11] [min] | Agar coagulation time [1, 12] [min] | Compound | IC50 at 24 h [2] [µg/mL] | IC50 at 24 h [3] [µg/mL] | also measured |
| --- | --- | --- | --- | --- | --- | --- | --- | --- |
| 13.200 ± 0.080 | 13.209 ± 0.079 | 13.185 ± 0.072 | 13.167 ± 0.066 | 13.192 ± 0.071 | CC(=O)Oc1c(C)c(C)c2c(c1C)CCC(C)(CCC[C@H](C)CCC[C@H](C)CCCC(C)C)O2 (some centres unmarked) [Tocopherol Acetate] | > 10000 | > 10000 | – |
| 13.193 ± 0.067 | 13.251 ± 0.077 | 13.296 ± 0.066 | 13.345 ± 0.088 | 13.354 ± 0.083 | NCCO [Monoethanolamine] | 3650 (≈ 59.7 mM) | – | – |
| 13.153 ± 0.056 | 13.186 ± 0.069 | 13.185 ± 0.066 | 13.172 ± 0.065 | 13.206 ± 0.087 | CCCCCCCCCCCCCC(=O)OC(C)C [Isopropyl Myristate] | > 10000 | > 10000 | – |
| 13.260 ± 0.068 | 13.199 ± 0.073 | 13.276 ± 0.081 | 13.254 ± 0.077 | 13.305 ± 0.097 | CC(C)CCCC(C)CCCC(C)CCCCC(C)CCCC(C)CCCC(C)C (centres unmarked) [Squalane] | 5420 (≈ 12.8 mM) | > 10000 | – |
| 13.230 ± 0.084 | 13.197 ± 0.066 | 13.242 ± 0.087 | 13.208 ± 0.100 | 13.203 ± 0.090 | COC(=O)c1ccc(O)cc1 [methyl p-hydroxybenzate] | 4850 (≈ 31.9 mM) | > 10000 | – |
| – | – | – | – | – | O.O.O.O.O.O.O.O.O.[Na+].[Na+].[S-2] [sodium Sulfide-9-Hydrate] | – | – | Skin cell 3T3 Cytotoxicity IC50 (skin 3T3 cells [4]): >10000 µg/mL; B16-F10 cytotoxicity IC50 (B16-F10 cells [5]): 4187.1 µg/mL |
| 32.821 ± 0.082 | 238.511 ± 0.101 | >4320 | >4320 | >4320 | Oc1cccc(O)c1 [Resorcinol] | 4930 (≈ 44.8 mM) | 9860 (≈ 89.5 mM) | – |
| – | – | – | – | – | O.O.O=C([O-])CC(O)(CC(=O)[O-])C(=O)[O-].[Na+].[Na+].[Na+] [Trisodium Citrate Dihydrate] | – | – | Skin cell 3T3 Cytotoxicity IC50 (skin 3T3 cells [4]): >10000 µg/mL; B16-F10 cytotoxicity IC50 (B16-F10 cells [5]): 3335.4 µg/mL |
| – | – | – | – | – | CC(O)CCO (centres unmarked) [Butylene Glycol] | – | – | B16-F10 cytotoxicity IC50 (B16-F10 cells [5]): >10000 µg/mL; IC50 (in vitro [6]): 7320 µg/mL (≈ 81.3 mM) |
| 18.299 ± 0.078 | 23.378 ± 0.091 | 43.302 ± 0.099 | 253.306 ± 0.124 | >1440 | CC(O)C(=O)O (centres unmarked) [Lactic acid] | 66 (≈ 0.733 mM) | 30.5 (≈ 0.338 mM) | Classification harmful / not harmful to skin by agar coagulation time compared with cell survival analysis [1]: harmful to skin |
| 13.210 ± 0.087 | 13.221 ± 0.091 | 13.144 ± 0.068 | 13.219 ± 0.093 | 13.184 ± 0.063 | O=C(O)c1ccccc1O [Salicylic Acid] | 414 (≈ 3 mM) | 1390 (≈ 10.1 mM) | – |
| 16.489 ± 0.475 | 20.455 ± 0.968 | 24.478 ± 1.280 | 43.671 ± 0.886 | 67.444 ± 1.687 | Nc1cccc(O)c1 [3-Aminophenol] | 126 (≈ 1.16 mM) | 308 (≈ 2.82 mM) | – |
| 18.406 ± 0.121 | 30.544 ± 0.139 | 91.139 ± 0.257 | – | – | OO [Hydrogen Peroxide] | 48.9 (≈ 1.44 mM) | 63.7 (≈ 1.87 mM) | Classification harmful / not harmful to skin by agar coagulation time compared with cell survival analysis [1]: harmful to skin; Agar coagulation time ([1]; sample concentration 17.5 % (w/w)): >1440 min |
| 14.356 ± 0.097 | 20.422 ± 0.106 | 43.333 ± 0.112 | – | – | Disodium Lauroamphodiacetate | – | – | Classification harmful / not harmful to skin by agar coagulation time compared with cell survival analysis [1]: harmful to skin; Agar coagulation time [1, 13]: 87.784 ± 0.176 min; B16-F10 cytotoxicity IC50 (B16-F10 cells [7]): 72.8 µg/mL; Skin cell 3T3 Cytotoxicity IC50 (skin 3T3 cells [8]): 55.6 µg/mL |
| – | – | – | – | – | Cn1sc(Cl)cc1=O [Methylchloroisothiazolinone] | – | – | Skin cell 3T3 Cytotoxicity IC50 (skin 3T3 cells [4]): 36.5 µg/mL; B16-F10 cytotoxicity IC50 (B16-F10 cells [5]): 58 µg/mL |
| 13.220 ± 0.081 | 13.228 ± 0.053 | 13.333 ± 0.087 | 13.265 ± 0.067 | 13.322 ± 0.091 | OCC(O)CO [Glycerin] | – | – | – |
| – | – | – | – | – | Nc1ccccc1O [2-Aminophenol] | – | – | IC50 (in vitro [9]): 39.3 µg/mL (≈ 0.36 mM); IC50 (in vitro [6]): 41.2 µg/mL (≈ 0.378 mM) |

| Compound | Agar coagulation time ([1]; sample concentration 1 % (w/w)) [min] | Agar coagulation time ([1]; sample concentration 5 % (w/w)) [min] | Agar coagulation time [1, 10] [min] | Agar coagulation time [1, 11] [min] | Agar coagulation time [1, 12] [min] | IC50 at 24 h [2] [µg/mL] | IC50 at 24 h [3] [µg/mL] | also measured |
| --- | --- | --- | --- | --- | --- | --- | --- | --- |
| CCCCCCCCCCCCOS(=O)(=O)O.N [AmmoniumLauryl Sulfate, Ammonium Lauryl Sulfate] | 16.444 ± 0.477 | 18.811 ± 0.987 | 28.372 ± 1.287 | – | – | – | – | Agar coagulation time with increase of sample concentration vs control group [1]: significantly longer; Agar coagulation time [1, 13]: 39.572 ± 1.077 min |
| Cl.NCCCC[C@H](N)C(=O)O [Lysine hydrochloride] | 13.241 ± 0.080 | 13.198 ± 0.077 | 13.238 ± 0.100 | 13.254 ± 0.119 | 13.286 ± 0.147 | – | – | – |
| Nc1ccc(N)cc1 [p-Phenylenediamine] | 16.245 ± 0.468 | 22.189 ± 0.782 | 27.500 ± 1.073 | 39.489 ± 1.572 | 52.689 ± 1.982 | – | – | Agar coagulation time with increase of sample concentration vs control group [1]: significantly longer |
| CCCCOC(=O)c1ccc(O)cc1 [Butyl Paraben] | 13.186 ± 0.080 | 13.210 ± 0.079 | 13.182 ± 0.076 | 13.141 ± 0.050 | 13.238 ± 0.107 | – | – | – |
